Assays:
Human secretory PLA2 = target: T1, Human secretory PLA2 (Homo sapiens, UniProt P14555); assay: Secretory PLA2 inhibitory activity (diheptanoyl thio PC substrate, absorbance at 405 nm); type: biochemical; details: diheptanoyl thio PC 1 mM, Triton X100 0.3 mM, pH 7.3, CaCl2 10 mM, 30 minutes, read-out: s-PLA2 Inhibition IC50
T1 sequence (P14555 21-144): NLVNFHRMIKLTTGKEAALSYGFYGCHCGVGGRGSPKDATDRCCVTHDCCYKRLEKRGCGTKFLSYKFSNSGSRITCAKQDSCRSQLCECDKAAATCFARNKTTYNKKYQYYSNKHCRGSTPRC
Summary of the method: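 Diheptanoyl thio-PC (1 mM) with Triton X100 (0.3 mM) and DTNB (125 μM) in Tris 25 mM pH 7.3, CaCl2 10 mM, KCl 100 mM, BSA 1.0 mg/ml. Absorbance change at 405 nm read at 30 min; percent inhibition corrected for no-enzyme blanks, IC50 from log-concentration plot.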

[1] = target: T2, intracellular PLA2 (cytosolic PLA2, cPLA2) (Homo sapiens, UniProt P47712); assay: Intracellular PLA2 (cPLA2) inhibitory activity (14C-arachidonyl phosphatidylcholine substrate); type: biochemical; details: 2 μM radiolabelled phosphatidylcholine, 1 μM dioleoylglycerol, 1 mM CaCl2, pH 7.4; read-out: c-PLA2 Inhibition IC50
T2 sequence (P47712 1-749): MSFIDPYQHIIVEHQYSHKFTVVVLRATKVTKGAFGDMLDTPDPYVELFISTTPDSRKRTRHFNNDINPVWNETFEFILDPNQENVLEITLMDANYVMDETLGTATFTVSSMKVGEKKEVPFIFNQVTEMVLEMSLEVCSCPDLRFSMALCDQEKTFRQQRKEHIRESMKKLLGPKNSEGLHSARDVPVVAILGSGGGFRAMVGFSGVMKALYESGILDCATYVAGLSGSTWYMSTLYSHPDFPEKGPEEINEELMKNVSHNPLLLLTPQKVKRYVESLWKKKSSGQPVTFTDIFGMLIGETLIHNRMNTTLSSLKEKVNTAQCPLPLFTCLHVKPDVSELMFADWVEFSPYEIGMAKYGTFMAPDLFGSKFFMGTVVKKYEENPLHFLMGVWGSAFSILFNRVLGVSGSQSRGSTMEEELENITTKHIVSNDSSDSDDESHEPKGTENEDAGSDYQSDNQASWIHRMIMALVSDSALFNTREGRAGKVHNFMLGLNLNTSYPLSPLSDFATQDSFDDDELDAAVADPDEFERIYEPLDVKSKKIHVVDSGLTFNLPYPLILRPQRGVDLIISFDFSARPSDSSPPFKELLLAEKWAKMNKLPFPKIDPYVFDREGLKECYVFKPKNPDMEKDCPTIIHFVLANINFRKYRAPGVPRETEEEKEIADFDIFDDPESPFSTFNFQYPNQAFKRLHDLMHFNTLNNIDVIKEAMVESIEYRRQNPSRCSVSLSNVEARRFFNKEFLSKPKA
Summary of the method: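 Sonicated vesicles carrying 2 μM 1-palmitoyl-2-[14C]arachidonyl-phosphatidylcholine with 1 μM dioleoylglycerol served as substrate. Buffer: 50 mM Hepes pH 7.4, 150 mM NaCl, 1 mM CaCl2, 2 mM DTT, 0.1 mg/ml BSA. IC50 values were derived.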

adjuvant arthritis = assay: Adjuvant arthritis in rats (Mycobacterium butyricum), foot edema volume; type: in vivo, Crj/LEW male rat; details: rat, 10 mg/kg P.O. daily, 17-18 days after adjuvant; *P < 0.05 (Examples 1, 69), **P < 0.01 (Examples 2, 23, 25) to vehicle control; Example 29 unmarked
Method: Adjuvant arthritis was induced by subcutaneously administering a suspension of 0.5 mg of Mycobacterium butyricum (Difco) in 0.05 ml of liquid paraffin to the pad of left foot of Crj/LEW male rat of 7-8 weeks age weighing 150-170 g. After administering the adjuvant, the volume of edema of both feet was daily measured by a plethysmometer. The adjuvant had been administered, and since the following day, a suspension of the test compound in 0.6% arabic gum was orally administered every day, and 17-18 days after administering the adjuvant, the volume of edema of the foot and that of foot to which no adjuvant had been administered were compared with each other. Volume of the edema in control group was defined as 100%, which value was obtained by subtracting the volume of foot of normal rat (1.2 ml) from the volume measured, and inhibitory percent obtained by using the inhibitor was defined as inhibitory rate. Using the inhibitory rate, effectiveness was determined by Student's-t assay.

IC50 (Human secretory PLA2) [µM] | IC50 [1] [µM] | Compound | Inhibition % (To Nontreated Foot), edema volume (adjuvant arthritis) [%]
21 | 20 | COc1c(C)c(OC(=O)c2c(C)c(C)c(OCCCOc3ccc(C(F)(F)F)cc3)c(C)c2OC)c(C)c(C)c1C(=O)O [Example 1, 4-[4-[3-(4-Trifluoromethylphenoxy)propyloxy]-2-methoxy-3,5,6-trimethylphenylcarboxy]-2-methoxy-3,5,6-trimethylbenzoic acid] | 43.4
12 | 8.5 | COc1c(C)c(OC(=O)c2c(C)c(C)c(OCCCOc3ccc(C)cc3)c(C)c2OC)c(C)c(C)c1C(=O)O [Example 29, 4-{4-[3-(4-Methylphenoxy)propoxy]-2-methoxy-3,5,6-trimethylbenzoyloxy}-2-methoxy-3,5,6-trimethylbenzoic Acid] | 33.1
9.4 | 4 | COc1c(C)c(OC(=O)c2c(C)c(C)c(OCCCOc3ccc(Cl)cc3)c(C)c2OC)c(C)c(C)c1C(=O)O [Example 23, 4-{4-[3-(4-Chlorophenoxy)propoxy]-2-methoxy-3,5,6-trimethylbenzoyloxy}-2-methoxy-3,5,6-trimethylbenzoic Acid] | 66.0
18 | 9 | COc1c(C)c(OC(=O)c2c(C)c(C)c(OCCCOc3ccc(F)cc3)c(C)c2OC)c(C)c(C)c1C(=O)O [Example 2, 4-[4-[3-(4-Fluorophenoxy)propyloxy]-2-methoxy-3,5,6-trimethylphenylcarboxy]-2-methoxy-3,5,6-trimethylbenzoic acid] | 52.3
4.6 | 13 | COc1c(C)c(OC(=O)c2c(C)c(C)c(OCCCOc3ccc(Br)cc3)c(C)c2OC)c(C)c(C)c1C(=O)O [Example 25, 4-{4-[3-(4-Bromophenoxy)propoxy]-2-methoxy-3,5,6-trimethylbenzoyloxy}-2-methoxy-3,5,6-trimethylbenzoic Acid] | 66.0
12 | 36 | COc1c(C)c(OC(=O)c2c(C)c(C)c(OCCCN3CCN(c4ccc(F)cc4)CC3)c(C)c2OC)c(C)c(C)c1C(=O)O [Example 69, 4-{4-[3-(4-(4-Fluorophenyl)piperazin-1-yl)propoxy]-2-methoxy-3,5,6-trimethylbenzoyloxy}-2-methoxy-3,5,6-trimethylbenzoic Acid] | 24.6
18 | 6.8 | COc1c(C)c(OC(=O)c2c(C)c(C)c(OCCCN3CCC(=C(c4ccccc4)c4ccccc4)CC3)c(C)c2OC)c(C)c(C)c1C(=O)O [Example 66, 4-{4-[3-(4-Benzhydrylidenepiperidin-1-yl)-propoxy]-2-methoxy-3,5,6-trimethylbenzoyloxy}-2-methoxy-3,5,6-trimethylbenzoic Acid] | 
6.7 | 7.1 | COc1c(C)c(OC(=O)c2c(C)c(C)c(OCCCOc3c(F)cccc3F)c(C)c2OC)c(C)c(C)c1C(=O)O [Example 38, 4-{4-[3-(2,6-Difluorophenoxy)propoxy]-2-methoxy-3,5,6-trimethylbenzoyloxy}-2-methoxy-3,5,6-trimethylbenzoic Acid] | 
15 | 2.6 | COc1c(C)c(OC(=O)c2c(C)c(C)c(OCCCOc3ccc(Br)cc3Br)c(C)c2OC)c(C)c(C)c1C(=O)O [Example 26, 4-{4-[3-(2,4-Dibromophenoxy)propoxy]-2-methoxy-3,5,6-trimethylbenzoyloxy}-2-methoxy-3,5,6-trimethylbenzoic Acid] | 
11 | 35 | COc1ccc(OCCCOc2c(C)c(C)c(C(=O)Oc3c(C)c(C)c(C(=O)O)c(OC)c3C)c(OC)c2C)cc1OC [Example 20, 4-[4-[3-(3,4-Dimethoxyphenoxy)propyloxy]-2-methoxy-3,5,6-trimethylphenylcarboxy]-2-methoxy-3,5,6-trimethylbenzoic acid] | 
> 50 | 0.54 | COc1c(C(C)(C)C)cc(SCCCOc2c(C)c(C)c(C(=O)Oc3c(C)c(C)c(C(=O)O)c(OC)c3C)c(OC)c2C)cc1C(C)(C)C [Example 7, 4-[4-[3-(3,5-Di-tert-butyl-4-methoxyphenylthio)propyloxy]-2-methoxy-3,5,6-trimethylphenylcarboxy]-2-methoxy-3,5,6-trimethylbenzoic acid] | 
17 | 5.1 | COc1c(C)c(OC(=O)c2c(C)c(C)c(OCCCN3CCN(C(c4ccccc4)c4ccccc4)CC3)c(C)c2OC)c(C)c(C)c1C(=O)O [Example 67, 4-{4-[3-(Di-Phenylmethylpiperazin-1-yl)propoxy]-2-methoxy-3,5,6-trimethylbenzoyloxy}-2-methoxy-3,5,6-trimethylbenzoic Acid] | 
6.8 | 6.3 | COc1c(C)c(OC(=O)c2c(C)c(C)c(OCCCN(S(=O)(=O)c3ccc(F)cc3)S(=O)(=O)c3ccc(F)cc3)c(C)c2OC)c(C)c(C)c1C(=O)O [Example 55, 4-{4-[3-bis(4-Fluorophenyl)sulfonylaminopropoxy]-2-methoxy-3,5,6-trimethylbenzoyloxy}-2-methoxy-3,5,6-trimethylbenzoic Acid] | 
2.1 | 4.2 | COc1c(C)c(OC(=O)c2c(C)c(C)c(OCCCN(S(=O)(=O)c3ccccc3)S(=O)(=O)c3ccccc3)c(C)c2OC)c(C)c(C)c1C(=O)O [Example 51, 4-{4-[(3-Bisphenylsulfonylamino)propoxy]-2-methoxy-3,5,6-trimethylbenzoyloxy}-2-methoxy-3,5,6-trimethylbenzoic Acid] | 
22 | 31 | COc1c(C)c(OC(=O)c2c(C)c(C)c(OCc3ccc(F)cc3)c(C)c2OC)c(C)c(C)c1C(=O)O [Example 8, 4-[4-(4-Fluorobenzyloxy)-2-methoxy-3,5,6-trimethylphenylcarboxy]-2-methoxy-3,5,6-trimethylbenzoic acid] | 

Compound | IC50 (Human secretory PLA2) [µM] | IC50 [1] [µM] | Inhibition % (To Nontreated Foot), edema volume (adjuvant arthritis) [%]
COc1c(C)c(OC(=O)c2c(C)c(C)c(OCCCN(C(=O)OC(C)(C)C)S(C)(=O)=O)c(C)c2OC)c(C)c(C)c1C(=O)O [Example 59, 4-[4-(3-t-Butoxycarbonylmethylsulfonylaminopropoxy)-2-methoxy-3,5,6-trimethylbenzoyloxy]-2-methoxy-3,5,6-trimethylbenzoic Acid] | 11 | > 50 | 
